Calls of active or inactive are those of the source.
How the values were obtained:
cells [1] = assay type: functional, cell-based
cells [2] = assay type: functional, cell-based; remark: listed apart in the source
Cytochrome P450 3A4 = Cytochrome P450 3A4 (Homo sapiens, UniProt P08684); details: Potency;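 also: confirmatory qHTS run detecting inhibitors and substrates of CYP3A4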
[3] = target: T1, Short transient receptor potential channel 4 (Mus musculus, UniProt Q9QUQ5); experiment: block of DAMGO-driven TRPC4 calcium entry – cell-based, HEK293 TRPC4/mu-opioid, Fluo-4 calcium, dose response (AID 434942); assay type: functional;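 also: potency of inhibitors blocking the TRPC4 calcium response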
T1 sequence (Q9QUQ5 whole entry): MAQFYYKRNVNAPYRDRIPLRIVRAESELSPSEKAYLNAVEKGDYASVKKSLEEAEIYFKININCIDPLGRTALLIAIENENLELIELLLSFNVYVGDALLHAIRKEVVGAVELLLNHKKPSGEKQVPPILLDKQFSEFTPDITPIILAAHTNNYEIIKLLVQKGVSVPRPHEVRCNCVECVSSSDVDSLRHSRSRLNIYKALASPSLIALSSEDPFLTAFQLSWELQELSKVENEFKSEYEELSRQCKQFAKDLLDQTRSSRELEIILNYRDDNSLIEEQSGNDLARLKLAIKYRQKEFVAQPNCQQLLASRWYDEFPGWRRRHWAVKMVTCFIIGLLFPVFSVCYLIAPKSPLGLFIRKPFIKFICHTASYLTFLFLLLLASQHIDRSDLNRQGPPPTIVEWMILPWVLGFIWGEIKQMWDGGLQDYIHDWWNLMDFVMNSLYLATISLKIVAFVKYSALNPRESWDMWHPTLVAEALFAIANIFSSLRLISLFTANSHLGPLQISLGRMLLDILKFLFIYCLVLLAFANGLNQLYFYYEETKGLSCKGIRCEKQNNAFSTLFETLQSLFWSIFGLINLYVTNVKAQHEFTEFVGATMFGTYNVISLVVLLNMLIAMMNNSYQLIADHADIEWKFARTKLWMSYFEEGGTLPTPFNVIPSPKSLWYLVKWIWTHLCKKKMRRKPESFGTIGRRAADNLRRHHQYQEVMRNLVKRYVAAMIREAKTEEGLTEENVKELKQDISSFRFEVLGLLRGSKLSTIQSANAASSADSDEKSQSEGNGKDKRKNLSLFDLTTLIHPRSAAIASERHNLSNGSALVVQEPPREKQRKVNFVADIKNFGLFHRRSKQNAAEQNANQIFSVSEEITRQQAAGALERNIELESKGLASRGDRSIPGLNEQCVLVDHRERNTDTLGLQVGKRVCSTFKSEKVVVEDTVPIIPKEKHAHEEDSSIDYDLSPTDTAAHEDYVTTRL

[4] = HEK-293T viability loss after treatment – luminescence, T-cell screen hits, cytotoxicity control for TCR NF-kB inhibitor project, dose response (AID 489026); assay type: functional, cell-based;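 also: cells exposed to compound about 14 hours before the viability readout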
[5] = A cytotoxicity screen of small molecule inhibitors of the PhoP region in Salmonella typhi identified in the primary screen. [Related pubchem assays: 1850, 1864, 1985 ]; assay type: functional
[6] = target: DNA dC->dU-editing enzyme APOBEC-3G (Homo sapiens, UniProt Q9HC16); experiment: Dose Response confirmation of small molecule APOBEC3G DNA Deaminase Inhibitors via a fluorescence-based single-stranded DNA deaminase assay. [Related pubchem assays (depositor defined):AID493012, AID493028]; assay type: functional
Estrogen receptor = target: T2, Estrogen receptor (Homo sapiens, UniProt P03372);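 also: potency for inhibiting coactivator peptide recruitment to the receptor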
T2 sequence (P03372 whole entry): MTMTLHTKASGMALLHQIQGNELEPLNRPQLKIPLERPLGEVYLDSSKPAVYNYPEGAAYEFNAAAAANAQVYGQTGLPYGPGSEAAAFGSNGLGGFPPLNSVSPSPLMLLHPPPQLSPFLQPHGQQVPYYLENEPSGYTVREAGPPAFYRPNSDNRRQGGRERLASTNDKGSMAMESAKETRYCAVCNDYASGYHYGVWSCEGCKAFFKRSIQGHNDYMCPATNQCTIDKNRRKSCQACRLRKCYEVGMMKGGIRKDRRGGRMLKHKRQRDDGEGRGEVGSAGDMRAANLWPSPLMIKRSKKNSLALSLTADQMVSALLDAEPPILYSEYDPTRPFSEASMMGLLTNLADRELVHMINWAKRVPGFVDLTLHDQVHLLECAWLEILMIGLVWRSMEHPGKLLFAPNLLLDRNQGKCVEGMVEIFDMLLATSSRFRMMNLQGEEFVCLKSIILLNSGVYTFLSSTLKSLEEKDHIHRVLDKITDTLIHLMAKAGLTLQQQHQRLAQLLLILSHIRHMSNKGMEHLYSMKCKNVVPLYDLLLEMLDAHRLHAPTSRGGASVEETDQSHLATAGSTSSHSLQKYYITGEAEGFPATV

[7] = target: T3, Microphthalmia-associated transcription factor (Homo sapiens, UniProt O75030); experiment: reducers of TRPM1 reporter luminescence, concentration series – cell-based, SK-MEL-5, cherry-picked, set 3, MITF inhibitor project, dose response (AID 493073); assay type: functional;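 also: SK-MEL-5 melanoma cells with luciferase driven by the MITF target TRPM1 promoter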
T3 sequence (O75030 whole entry): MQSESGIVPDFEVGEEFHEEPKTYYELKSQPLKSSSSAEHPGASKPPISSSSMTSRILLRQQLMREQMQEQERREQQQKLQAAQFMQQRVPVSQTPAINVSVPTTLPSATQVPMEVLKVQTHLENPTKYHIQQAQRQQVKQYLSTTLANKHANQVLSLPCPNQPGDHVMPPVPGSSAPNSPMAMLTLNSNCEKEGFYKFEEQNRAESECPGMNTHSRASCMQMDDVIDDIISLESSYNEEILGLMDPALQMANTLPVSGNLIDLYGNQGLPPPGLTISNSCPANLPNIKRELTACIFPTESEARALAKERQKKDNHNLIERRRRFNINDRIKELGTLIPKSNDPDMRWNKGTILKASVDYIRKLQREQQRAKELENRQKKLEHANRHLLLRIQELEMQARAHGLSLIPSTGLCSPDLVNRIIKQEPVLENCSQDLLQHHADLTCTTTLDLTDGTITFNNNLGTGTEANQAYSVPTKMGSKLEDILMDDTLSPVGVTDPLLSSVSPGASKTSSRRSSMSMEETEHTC

[8] = target: T4, Rac GTPase-activating protein 1 (Homo sapiens, UniProt Q9H0H5); experiment: blockers of MgcRacGAP-driven Rac1 GTP hydrolysis – biochemical, ADP Hunter fluorescence, primary and confirmatory, confirmation (AID 624330); assay type: functional
T4 sequence (Q9H0H5 whole entry): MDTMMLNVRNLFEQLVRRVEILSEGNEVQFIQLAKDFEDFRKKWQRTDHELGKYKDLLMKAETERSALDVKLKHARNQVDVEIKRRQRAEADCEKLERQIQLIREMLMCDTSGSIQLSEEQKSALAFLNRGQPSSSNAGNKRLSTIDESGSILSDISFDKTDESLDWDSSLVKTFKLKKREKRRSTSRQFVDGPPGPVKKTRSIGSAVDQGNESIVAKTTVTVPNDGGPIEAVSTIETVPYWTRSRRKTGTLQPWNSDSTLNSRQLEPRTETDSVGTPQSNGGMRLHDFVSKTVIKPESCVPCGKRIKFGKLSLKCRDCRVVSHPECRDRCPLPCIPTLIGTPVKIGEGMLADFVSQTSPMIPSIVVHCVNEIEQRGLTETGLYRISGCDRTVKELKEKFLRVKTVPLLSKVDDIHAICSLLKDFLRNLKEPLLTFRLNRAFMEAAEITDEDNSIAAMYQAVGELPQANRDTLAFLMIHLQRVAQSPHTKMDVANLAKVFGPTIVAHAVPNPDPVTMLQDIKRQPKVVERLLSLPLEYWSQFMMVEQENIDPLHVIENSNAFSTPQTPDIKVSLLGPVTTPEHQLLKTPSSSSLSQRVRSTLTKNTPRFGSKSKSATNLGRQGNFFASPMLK

[9] = Trypanosoma cruzi growth suppression in host cells – NIH3T3 host cells, beta-gal luminescence, confirmation (AID 2044); assay type: functional, cell-based;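 also: intracellular parasites grown in NIH/3T3 mouse fibroblasts as host cells; luminescent beta-galactosidase reporter signal from transgenic T. cruzi replicating inside host cells; inhibitors lower the luminescence signal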
[10] = system: Streptococcus sp. 'group A'; experiment: Streptococcus pyogenes SK(-)GAS viability under kanamycin – luminescence, BacTiterGlo, confirmation, counter-screen for streptokinase expression inhibitor project, dose response (AID 1900); assay type: functional, organism-based
[11] = THP-1 cell cytotoxicity, dose response, cytotoxicity control for non-replicating M. tuberculosis project (AID 489025); assay type: functional
cells [12] = assay type: functional
[13] = NIH-3T3 fibroblast cytotoxicity, dose response, cytotoxicity control, cell-based, fluorescence, Alamar Blue, secondary assay (AID 2327); assay type: functional;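 also: NIH-3T3 mouse fibroblasts cultured with fluconazole at 8 µg/mL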
[14] = fluconazole-exposed Candida albicans growth modulators – fluorescence, retest, confirmation (AID 2467); assay type: functional, cell-based
[15] = NIH3T3 cell viability loss – ATP luminescence, mouse fibroblasts, counter-screen, dose response (AID 2010); assay type: functional, cell-based;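 also: cells exposed to compound for about 90 hours before reading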
[16] = target: T1, Short transient receptor potential channel 4; experiment: calcium entry via TRPC4 opening agents – cell-based, HEK293 TRPC4/mu-opioid, Fluo-4 calcium, dose response (AID 434937); assay type: functional
Streptococcus = experiment: GAS UMAA2166 growth inhibition – luminescence, BacTiterGlo, counter-screen for streptokinase expression inhibitor project, dose response (AID 1915); assay type: functional, organism-based;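 also: potency for reduction of bacterial viability or growth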
[17] = target: Induced myeloid leukemia cell differentiation protein Mcl-1 (Homo sapiens, UniProt Q07820); assay type: functional
Chain of Induced myeloid leukemia cell differentiation protein Mcl-1 (Q07820 whole entry): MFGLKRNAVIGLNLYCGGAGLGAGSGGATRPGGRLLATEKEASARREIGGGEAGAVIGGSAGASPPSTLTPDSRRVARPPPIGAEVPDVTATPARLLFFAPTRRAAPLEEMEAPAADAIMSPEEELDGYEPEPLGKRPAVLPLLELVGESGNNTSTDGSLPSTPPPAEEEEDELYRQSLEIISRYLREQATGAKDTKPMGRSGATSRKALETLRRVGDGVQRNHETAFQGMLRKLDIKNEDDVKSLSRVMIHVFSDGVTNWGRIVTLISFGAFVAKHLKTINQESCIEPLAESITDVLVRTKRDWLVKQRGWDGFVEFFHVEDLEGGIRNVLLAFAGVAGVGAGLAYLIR

Chain of DNA dC->dU-editing enzyme APOBEC-3G (Q9HC16 whole entry): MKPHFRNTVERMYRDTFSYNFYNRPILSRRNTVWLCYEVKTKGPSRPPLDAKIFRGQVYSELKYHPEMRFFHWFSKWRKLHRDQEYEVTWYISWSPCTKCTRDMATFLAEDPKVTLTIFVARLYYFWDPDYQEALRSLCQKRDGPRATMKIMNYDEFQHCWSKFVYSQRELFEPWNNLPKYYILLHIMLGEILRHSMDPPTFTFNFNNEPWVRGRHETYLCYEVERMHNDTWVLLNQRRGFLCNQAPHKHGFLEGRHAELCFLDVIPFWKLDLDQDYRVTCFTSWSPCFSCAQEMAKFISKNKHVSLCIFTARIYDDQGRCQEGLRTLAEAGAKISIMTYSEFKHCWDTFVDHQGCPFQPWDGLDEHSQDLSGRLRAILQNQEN
Chain of Cytochrome P450 3A4 (P08684 whole entry): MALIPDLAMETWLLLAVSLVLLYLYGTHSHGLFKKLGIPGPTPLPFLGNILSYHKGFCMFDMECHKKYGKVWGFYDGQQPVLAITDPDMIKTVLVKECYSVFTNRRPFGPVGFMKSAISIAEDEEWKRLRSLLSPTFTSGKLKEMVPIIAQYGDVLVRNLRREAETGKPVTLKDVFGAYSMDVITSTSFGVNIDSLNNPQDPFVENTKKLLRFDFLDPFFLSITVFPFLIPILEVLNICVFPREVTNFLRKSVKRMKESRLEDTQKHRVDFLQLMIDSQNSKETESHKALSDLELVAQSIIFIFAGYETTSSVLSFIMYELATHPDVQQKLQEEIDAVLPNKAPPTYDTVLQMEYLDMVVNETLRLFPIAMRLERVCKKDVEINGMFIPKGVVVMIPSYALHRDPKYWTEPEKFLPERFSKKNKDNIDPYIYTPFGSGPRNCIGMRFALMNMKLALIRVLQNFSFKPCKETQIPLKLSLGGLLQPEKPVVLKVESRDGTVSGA

With `Cc1cc(C)cc(NC(=O)c2cccc(NC(=O)c3ccco3)c2)c1` the EC50 (cells [1]) was > 350 µM (not active) and the EC50 (cells [2]) was 34.9 µM (active).
For `C=CCC1(C)OC=Cc2nc3cc(Cl)c(Cl)cc3nc21` (stereo unspecified), the AC50 (Cytochrome P450 3A4) was 3.98 µM (inconclusive).
For `COc1ccc(OC)c(Nc2cc(-c3ccccc3)nc(N)n2)c1`, the EC50 [3] was 4.73 µM (active) and the IC50 [4] was > 80 µM (inactive).
For `O=C(CC(=O)NCc1ccccc1)NCc1ccccc1`, the EC50 [5] was > 50 µM (active).
In the case of `Cc1cc(NS(=O)(=O)c2ccc(NC(=O)C(C)Oc3ccc4c(C)cc(=O)oc4c3)cc2)no1` (stereo unspecified), the EC50 [5] is reported as > 50 µM (active).
With `Cn1nc(C(=O)NCCCN2CCCCC2)c2c1-c1ccccc1S(=O)(=O)C2` the EC50 (cells [1]) was > 350 µM (not active) and the EC50 (cells [2]) was > 350 µM (not active).
In the case of `C=CCN(c1ccccc1)S(=O)(=O)c1cccc(C(=O)Nc2ncccc2O)c1`, the EC50 (cells [1]) is reported as > 350 µM (not active) and the EC50 (cells [2]) is reported as > 350 µM (not active).
With `OC1(c2ccc(F)cc2)CCN(Cc2ccccc2)C1` (stereo unspecified) the EC50 [3] was 2.99 µM (active).
For `Cc1cc(-c2nnc(S)n2/N=C/c2ccco2)[nH]n1`, the IC50 [6] was 14.2 µM (active).
In the case of `O=C(CCC(=O)c1cccs1)Nc1nnc(C2CC2)s1`, the IC50 (Estrogen receptor) is reported as > 50 µM (not active).
With `O=C(CCCCCN1C(=O)c2ccccc2C1=O)Nc1ccc2c(c1)OCCO2` the EC50 (cells [1]) was > 350 µM (not active) and the EC50 (cells [2]) was > 350 µM (not active).
For `O=C(Nc1ccc2oc(-c3ccccc3F)nc2c1)c1cncc(Br)c1`, the IC50 (Estrogen receptor) was 15.5 µM (active).
For `COCCn1c(C)cc(C(=O)CSc2nnc(C)s2)c1C`, the AC50 [7] was 3.04 µM (active).
With `CCCCN(CCCC)CCNC(=O)CSCc1ccc(C)cc1` the EC50 [5] was > 50 µM (active) and the IC50 [8] was 147 µM (active).
With `C=C[C@H]1CN2CC[C@H]1C[C@H]2c1[nH]c2ccccc2c1CCO` [CINCHONAMINE] the AC50 (Cytochrome P450 3A4) was 31.6 µM (inconclusive).
In the case of `O=C(c1cccc(C(F)(F)F)c1)C1CCCN(Cc2cccn2-c2ccccn2)C1` (stereo unspecified), the EC50 [3] is reported as 5.96 µM (active).
For `O=C(NC(=S)NNC(=O)[C@H]1C[C@@H]1c1ccccc1)c1cccc(F)c1`, the EC50 [9] was 3.91 µM (active), the EC50 [10] was 1.89 µM (active) and the CC50 [11] was > 40 µM (active). The IC50 (cells [12]) was 18.8 µM (active), the EC50 [13] was > 160 µM (inactive) and the EC50 [14] was 1.91 µM (active). For the same compound, the EC50 [15] was 17.6 µM (active), the EC50 [16] was 4.22 µM (active) and the EC50 (Streptococcus) was 3.65 µM (active).
With `Cn1c(CN2CCCC2)nc2cc(NC(=O)COc3ccc(Cl)cc3)ccc21` the EC50 [5] was > 50 µM (active).
In the case of `CCN1CCc2c(sc(NC(=O)c3ccc(S(=O)(=O)N4CCCC4)cc3)c2C(=O)NC)C1`, the AC50 [7] is reported as 9.14 µM (active).
For `CC1(C)CC2C1CCC1(C)OC1CCC2(C)O` (stereo unspecified) [2-HYDROXY-5 (6)EPOXY-TETRAHYDROCARYOPHYLLENE], the AC50 (Cytochrome P450 3A4) was 25.1 µM (inconclusive).
In the case of `Clc1cccc(CN2C3=NCCCN3c3ccccc32)c1`, the EC50 [5] is reported as > 50 µM (active).
With `CC(C)Nc1c([N+](=O)[O-])nn(C)[n+]1[O-]` the AC50 [7] was 299 µM (active).
In the case of `CCCCn1c(NCc2ccc(N(C)C)cc2)nc2ccccc21`, the EC50 [3] is reported as 1.5 µM (active) and the IC50 [17] is reported as 1.26 µM (active).
In the case of `CCCn1c(C)nc2c(Nc3ccccc3)nc(C)nc21`, the AC50 (Cytochrome P450 3A4) is reported as 31.6 µM (inconclusive).
With `C=C(C)C(=O)Nc1cccc(C2=NOC3(C2)C[C@@H](C(N)=O)N(C(=O)[C@H]2CCC(=O)N2)C3)c1` (stereo partly specified) the IC50 [6] was 19.3 µM (active).
For `O=C(CSc1ccccc1)Nc1nnc(COc2ccc(Cl)cc2)s1`, the IC50 [6] was 32.3 µM (active).

Source: ChEMBL document CHEMBL1201862, “PubChem BioAssay data set” (2004)
